Experimental data published in patent US7781565B2 (priority 2006, dated 2010).

Test system: NCI-60 cell lines
Type: cell-based, human

## ISGVSDD
  Cell Line the peptide is associated with (peptide recovered from phage library selection on this NCI-60 cell line): BT-549 Breast

## NGGRVLS
  Cell Line the peptide is associated with (peptide recovered from phage library selection on this NCI-60 cell line): ACHN Renal

## LVSYSAV
  Cell Line the peptide is associated with (peptide recovered from phage library selection on this NCI-60 cell line): RXF393 Renal

## PGLGYAL
  Cell Line the peptide is associated with (peptide recovered from phage library selection on this NCI-60 cell line): T-47D Breast

## HRVSESV
  Cell Line (NCI-60 cell line the peptide and its motif are associated with): OVCAR-5 Ovarian

## RRGSVAE
  Cell Line the peptide is associated with (peptide recovered from phage library selection on this NCI-60 cell line): HS 578 T Breast

## RVGRLGG
  Cell Line with which the peptide (and its tripeptide motif) is associated: A549-Lung

## AAVGGRV
  Cell Line (NCI-60 cell line the peptide and its motif are associated with): M14 Melanoma

## RSGSSVY
  Cell Line with which the peptide (and its tripeptide motif) is associated: H23-Lung

## AGLEDLG
  Cell Line the peptide is associated with (peptide recovered from phage library selection on this NCI-60 cell line): RXF393 Renal

## TTGSVIV
  Cell Line with which the peptide (and its tripeptide motif) is associated: H23-Lung

## RREGLRS
  Cell Line (NCI-60 cell line the peptide and its motif are associated with): OVCAR-3 Ovarian
  Cell Line with which the peptide (and its tripeptide motif) is associated: H522-Lung

## RDGVRVG
  Cell Line (NCI-60 cell line the peptide is associated with): LOX-IMVI Melanoma

## IAGLAVV
  Cell Line (NCI-60 cell line the peptide is associated with): SNB-75 CNS

## LGLVSTT
  Cell Line (NCI-60 cell line the peptide is associated with): HT-29 Colon

## SLLRRLE
  Cell Line the peptide is associated with (peptide recovered from phage library selection on this NCI-60 cell line): TK-10 Renal

## RFSSRAV
  Cell Line (NCI-60 cell line the peptide and its motif are associated with): IGROV1 Ovarian

## RGRVLLP
  Cell Line (NCI-60 cell line the peptide and its motif are associated with): M14 Melanoma

## LSGRVIV
  Cell Line the peptide is associated with (peptide recovered from phage library selection on this NCI-60 cell line): UO31 Renal

## AASVGVA
  Cell Line the peptide is associated with (peptide recovered from phage library selection on this NCI-60 cell line): MDA-MB-231 Breast

## ADWGVLE
  Cell Line (NCI-60 cell line the peptide is associated with): SNB-75 CNS

## YFRARGS
  Cell Line (NCI-60 cell line the peptide and its motif are associated with): 786-0 Renal

## WRLSREG
  Cell Line (NCI-60 cell line the peptide and its motif are associated with): SK-MEL-2 Melanoma

## LPLGLVS
  Cell Line the peptide is associated with (peptide recovered from phage library selection on this NCI-60 cell line): T-47D Breast

## LDRSGGL
  Cell Line (NCI-60 cell line the peptide is associated with): HCT-116 Colon

## LLSGVIL
  Cell Line (NCI-60 cell line the peptide is associated with): LOX-IMVI Melanoma

## ASLRYYV
  Cell Line with which the peptide (and its tripeptide motif) is associated: SR Leukemia

## GGVLYLE
  Cell Line with which the peptide (and its tripeptide motif) is associated: H226-Lung

## MLASAGR
  Cell Line with which the peptide (and its tripeptide motif) is associated: HL-60-Leukemia

## AARGLEA
  Cell Line (NCI-60 cell line the peptide is associated with): COLO-205-Colon

## DENRAGL
  Cell Line (NCI-60 cell line the peptide and its motif are associated with): DU-145 Prostate

## GRSSAGP
  Cell Line the peptide is associated with (peptide recovered from phage library selection on this NCI-60 cell line): MDA-MB-231 Breast

## SVRVGSG
  Cell Line (NCI-60 cell line the peptide and its motif are associated with): SK-MEL-28 Melanoma

## WGSSAVK
  Cell Line (NCI-60 cell line the peptide and its motif are associated with): IGROV1 Ovarian

## RRARGAC
  Cell Line (NCI-60 cell line the peptide is associated with): SNB-75 CNS

## TRGDAVS
  Cell Line (NCI-60 cell line the peptide is associated with): SF-295 CNS

## AGRPGGY
  Cell Line (NCI-60 cell line the peptide and its motif are associated with): PC3 Prostate

## RAGSRYI
  Cell Line (NCI-60 cell line the peptide and its motif are associated with): SK-MEL-28 Melanoma

## TRDGVRW
  Cell Line the peptide is associated with (peptide recovered from phage library selection on this NCI-60 cell line): RXF393 Renal

## FMGAGFA
  Cell Line with which the peptide (and its tripeptide motif) is associated: HL-60-Leukemia

## RGSRLPA
  Cell Line with which the peptide (and its tripeptide motif) is associated: EKVX-Lung

## GLVSAFY
  Cell Line with which the peptide (and its tripeptide motif) is associated: Hop-62-Lung

## LLRGLRP
  Cell Line the peptide is associated with (peptide recovered from phage library selection on this NCI-60 cell line): TK-10 Renal

## ACTGVSR
  Cell Line the peptide is associated with (peptide recovered from phage library selection on this NCI-60 cell line): RXF393 Renal

## VARGQMQ
  Cell Line with which the peptide (and its tripeptide motif) is associated: H226-Lung

## RTGSSDL
  Cell Line with which the peptide (and its tripeptide motif) is associated: Hop-92-Lung

## RRVSLVA
  Cell Line with which the peptide (and its tripeptide motif) is associated: CCRF-CEM Leukemia

## SRLSYCN
  Cell Line (NCI-60 cell line the peptide and its motif are associated with): OVCAR-4 Ovarian

## PVGGVLL
  Cell Line with which the peptide (and its tripeptide motif) is associated: A549-Lung

## LRAGGSY
  Cell Line (NCI-60 cell line the peptide and its motif are associated with): IGROV1 Ovarian

## SSGGRSS
  Cell Line (NCI-60 cell line the peptide is associated with): MALME-3M Melanoma

## RGLQGGR
  Cell Line (NCI-60 cell line the peptide and its motif are associated with): SK-MEL-2 Melanoma

## YWGGSVP
  Cell Line the peptide is associated with (peptide recovered from phage library selection on this NCI-60 cell line): UO31 Renal

## DNCERGV
  Cell Line (NCI-60 cell line the peptide and its motif are associated with): UACC62 Melanoma

## VGIGAGG
  Cell Line the peptide is associated with (peptide recovered from phage library selection on this NCI-60 cell line): T-47D Breast

## YWQHRVS
  Cell Line (NCI-60 cell line the peptide is associated with): HCT-116 Colon

## RTWGGRM
  Cell Line (NCI-60 cell line the peptide and its motif are associated with): M14 Melanoma

## RYGVGGL
  Cell Line (NCI-60 cell line the peptide is associated with): HT-29 Colon

## YAAGGST
  Cell Line (NCI-60 cell line the peptide and its motif are associated with): A498 Renal
  Cell Line the peptide is associated with (peptide recovered from phage library selection on this NCI-60 cell line): A498 Renal

## AEDSGGR
  Cell Line the peptide is associated with (peptide recovered from phage library selection on this NCI-60 cell line): BT-549 Breast

## GGRSQEG
  Cell Line the peptide is associated with (peptide recovered from phage library selection on this NCI-60 cell line): UO31 Renal

## SGRVFRF
  Cell Line the peptide is associated with (peptide recovered from phage library selection on this NCI-60 cell line): HS 578 T Breast

## WAHAASY
  Cell Line the peptide is associated with (peptide recovered from phage library selection on this NCI-60 cell line): CAIK-1 Renal

## GRLAVVA
  Cell Line (NCI-60 cell line the peptide is associated with): HT-29 Colon

## ADFFGLV
  Cell Line with which the peptide (and its tripeptide motif) is associated: RPMI-8226-Leukemia

## SVTGRVS
  Cell Line (NCI-60 cell line the peptide and its motif are associated with): 786-0 Renal

## LSMLRSA
  Cell Line with which the peptide (and its tripeptide motif) is associated: H322-Lung

## AGSVTEQ
  Cell Line the peptide is associated with (peptide recovered from phage library selection on this NCI-60 cell line): UO31 Renal

## GVRWNWS
  Cell Line the peptide is associated with (peptide recovered from phage library selection on this NCI-60 cell line): RXF393 Renal

## VGLRCSV
  Cell Line the peptide is associated with (peptide recovered from phage library selection on this NCI-60 cell line): BT-549 Breast

## MRPGLRS
  Cell Line the peptide is associated with (peptide recovered from phage library selection on this NCI-60 cell line): MDA-MB-231 Breast

## LRSGSLG
  Cell Line (NCI-60 cell line the peptide is associated with): SF-268 CNS

## GGRPTVT
  Cell Line the peptide is associated with (peptide recovered from phage library selection on this NCI-60 cell line): HS 578 T Breast

## RVGTLRV
  Cell Line (NCI-60 cell line the peptide and its motif are associated with): SK-OV-3-3 Ovarian

## VHSLRAS
  Cell Line (NCI-60 cell line the peptide and its motif are associated with): UACC 257 Melanoma

## GTPAVSY
  Cell Line the peptide is associated with (peptide recovered from phage library selection on this NCI-60 cell line): NCI/ADR-RES Breast

## LSSGLVS
  Cell Line with which the peptide (and its tripeptide motif) is associated: H460-Lung

## WISAVSK
  Cell Line (NCI-60 cell line the peptide and its motif are associated with): SK-OV-3-3 Ovarian

## AYYSLRS
  Cell Line (NCI-60 cell line the peptide is associated with): KM-12C Colon

## SRLSYWQ
  Cell Line (NCI-60 cell line the peptide is associated with): LOX-IMVI Melanoma

## WLDASLM
  Cell Line with which the peptide (and its tripeptide motif) is associated: SR Leukemia

## LRVGIGY
  Cell Line with which the peptide (and its tripeptide motif) is associated: H23-Lung

## LSERRGV
  Cell Line (NCI-60 cell line the peptide is associated with): SF-295 CNS

## FRALGGL
  Cell Line (NCI-60 cell line the peptide is associated with): SNB-75 CNS

## GRWTGSS
  Cell Line the peptide is associated with (peptide recovered from phage library selection on this NCI-60 cell line): MCF-7 Breast

## SRAVIRL
  Cell Line (NCI-60 cell line the peptide and its motif are associated with): OVCAR-5 Ovarian

## GRERVSH
  Cell Line the peptide is associated with (peptide recovered from phage library selection on this NCI-60 cell line): CAIK-1 Renal

## SVVGVST
  Cell Line (NCI-60 cell line the peptide is associated with): HCT-15 Colon

## GAYRLVS
  Cell Line with which the peptide (and its tripeptide motif) is associated: CCRF-CEM Leukemia

## AMRPGRL
  Cell Line with which the peptide (and its tripeptide motif) is associated: RPMI-8226-Leukemia

## DGAVILH
  Cell Line (NCI-60 cell line the peptide and its motif are associated with): UACC 257 Melanoma

## GGLPVQM
  Cell Line (NCI-60 cell line the peptide and its motif are associated with): PC3 Prostate

## LVGRGVR
  Cell Line (NCI-60 cell line the peptide is associated with): SF-268 CNS

## WVGSGSP
  Cell Line with which the peptide (and its tripeptide motif) is associated: Hop-92-Lung

## SSSLAGS
  Cell Line the peptide is associated with (peptide recovered from phage library selection on this NCI-60 cell line): UO31 Renal

## TWIGRVS
  Cell Line (NCI-60 cell line the peptide is associated with): LOX-IMVI Melanoma

## DAGSDRR
  Cell Line with which the peptide (and its tripeptide motif) is associated: EKVX-Lung

## GRLAAGS
  Cell Line the peptide is associated with (peptide recovered from phage library selection on this NCI-60 cell line): MCF-7 Breast

## PLQRGSG
  Cell Line the peptide is associated with (peptide recovered from phage library selection on this NCI-60 cell line): BT-549 Breast

## LELLSVV
  Cell Line (NCI-60 cell line the peptide is associated with): SNB-75 CNS

## VAGRLQM
  Cell Line (NCI-60 cell line the peptide and its motif are associated with): OVCAR-4 Ovarian

## RYGTAGS
  Cell Line the peptide is associated with (peptide recovered from phage library selection on this NCI-60 cell line): SN12C Renal

## GVLLWRP
  Cell Line (NCI-60 cell line the peptide and its motif are associated with): UACC62 Melanoma

## GRAVWMV
  Cell Line (NCI-60 cell line the peptide is associated with): KM-12C Colon

## GTLGVLS
  Cell Line (NCI-60 cell line the peptide and its motif are associated with): UACC62 Melanoma

## FLRVGEL
  Cell Line with which the peptide (and its tripeptide motif) is associated: Hop-62-Lung

## SGVGGRY
  Cell Line (NCI-60 cell line the peptide and its motif are associated with): UACC 257 Melanoma

## RKGSGTA
  Cell Line the peptide is associated with (peptide recovered from phage library selection on this NCI-60 cell line): BT-549 Breast

## DVPGVRF
  Cell Line with which the peptide (and its tripeptide motif) is associated: EKVX-Lung

## SRSCGGL
  Cell Line (NCI-60 cell line the peptide is associated with): LOX-IMVI Melanoma

## SYFRAGR
  Cell Line with which the peptide (and its tripeptide motif) is associated: H23-Lung

## WRGGLDR
  Cell Line the peptide is associated with (peptide recovered from phage library selection on this NCI-60 cell line): MCF-7 Breast

## FQRSGRL
  Cell Line (NCI-60 cell line the peptide and its motif are associated with): SK-MEL-28 Melanoma

## GAAASGY
  Cell Line (NCI-60 cell line the peptide is associated with): SW620-Colon

## RAGRDAP
  Cell Line (NCI-60 cell line the peptide and its motif are associated with): UACC62 Melanoma

## AGRFGAR
  Cell Line (NCI-60 cell line the peptide and its motif are associated with): OVCAR-8 Ovarian

## SDRGLVV
  Cell Line (NCI-60 cell line the peptide is associated with): HCT-15 Colon

## GEALGLG
  Cell Line (NCI-60 cell line the peptide and its motif are associated with): SK-MEL-2 Melanoma

## DQQEAGS
  Cell Line (NCI-60 cell line the peptide and its motif are associated with): 786-0 Renal

## LPLLRGI
  Cell Line with which the peptide (and its tripeptide motif) is associated: HL-60-Leukemia

## RGSRWSS
  Cell Line the peptide is associated with (peptide recovered from phage library selection on this NCI-60 cell line): BT-549 Breast

## GGSRNRW
  Cell Line with which the peptide (and its tripeptide motif) is associated: H226-Lung

## GGVRLGG
  Cell Line (NCI-60 cell line the peptide and its motif are associated with): PC3 Prostate

## GRVVGEA
  Cell Line with which the peptide (and its tripeptide motif) is associated: H322-Lung

## HGLVTHN
  Cell Line (NCI-60 cell line the peptide is associated with): MALME-3M Melanoma

## KGDGSVR
  Cell Line (NCI-60 cell line the peptide and its motif are associated with): SK-OV-3-3 Ovarian

## WTVGGRV
  Cell Line the peptide is associated with (peptide recovered from phage library selection on this NCI-60 cell line): A498 Renal

## RFTRSSG
  Cell Line with which the peptide (and its tripeptide motif) is associated: A549-Lung

## DGGGRVG
  Cell Line the peptide is associated with (peptide recovered from phage library selection on this NCI-60 cell line): CAIK-1 Renal

## DVETRGS
  Cell Line with which the peptide (and its tripeptide motif) is associated: CCRF-CEM Leukemia
